{"source": "patent US9017645B2", "about": "“Homoglutamic acid derivatives” (Piramal Imaging SA, priority 2009, dated 2015)", "system": "H460 cells", "assay": "Cell-competition experiment: uptake of radiolabeled glutamic acid derivative into tumor cells", "type": "cell-based, human", "settings": "competitor 1 mM and 0.1 mM, 30 min incubation in PBS", "experimental": "FIG. 7: Biological activity of (2S)-2-Amino-5-(4-cyano-3-fluorobenzyl)hexanedioic acid in a cell-competition-experiment (H460 cells, 30 min incubation with radiolabeled glutamic acid derivative in PBS-Puffer, concentration of competitor 1 mM and 0.1 mM).\nThe ability of (2S)-2-Amino-5-(4-cyano-3-fluorobenzyl)hexanedioic acid to compete with uptake of glutamic acid derivatives into tumor cells was examined. Therefore, tumor cells were co-incubated with a radiolabeled glutamic acid derivative and (2S)-2-Amino-5-(4-cyano-3-fluorobenzyl)hexanedioic acid. This compounds was used in large excess to the tracer. Two concentrations were examined (1 mM an 0.1 mM)."}
{"smiles": "N#Cc1ccc(CC(CC[C@H](N)C(=O)O)C(=O)O)cc1F", "note": "(stereo partly drawn) [(2S)-2-Amino-5-(4-cyano-3-fluorobenzyl)hexanedioic acid]", "values": [{"measurement": "uptake of radiolabeled glutamic acid derivative into tumor cells (competition)", "result": "strongly reduces the uptake"}]}
